Test system: patients with postpartum depression (PPD)
Experiment: Clinical trial of inhaled 5-MeO-DMT in postpartum depression
Conditions: 1 patient
Experimental: The single-arm, open-label clinical trial will involve 15 adult female patients with clinically diagnosed postpartum depression (PPD).
The second dose (12 mg) will only be administered if: • a. A peak experience (total score of ⋅75) has not been achieved following the 6 mg dose, and • b. The 6 mg dose was safe and well-tolerated according to the investigator, • c. Any psychoactive effects (PsE) of the prior dose have subsided, and • d. Pre-dose vital parameters and forced expiratory volume in one second (FEV1) are in normal range, or if outside of the normal range, are not clinically significant according to the investigator. • 3. Similarly, a third dose (18 mg) will only be administered if: • a. A peak experience (total score of ⋅75) has not been achieved following the 12 mg dose, and • b. The 12 mg dose was safe and well-tolerated according to the investigator, and • c. Any PsE of the prior dose have subsided, and • d. Pre-dose vital parameters and forced expiratory volume in one second (FEV1) are in normal range, or if outside of the normal range, are not clinically significant according to the investigator.
The patients will be assessed for a peak psychedelic experience (based on a patient-scored visual analogue scale, the PE scale), sedation, and other endpoints after dosing. Follow-up visits are planned for Day 1, and Day 7 after the dosing day.
The following criteria must be met by all patients considered for clinical trial participation: • 1. Is female and in the age range between 18 and 45 years (inclusive) at screening. • 2. Has a body mass index (BMI) in the range of 18.5 and 35 kg/m^2 (inclusive) at screening. • 3. Meets the trial criteria for PPD as assessed by a trial psychiatrist or registered psychologist: • a. Diagnosis of Major Depressive Disorder without psychotic features, confirmed by the Mini-International Neuropsychiatric Interview (MINI), with peri-partum onset that began no earlier than gestation and no later than the first 4 weeks postpartum. • b. Has a Montgomery-Åsberg Depression Rating Scale (MADRS) total score of equal to or greater than 28 at screening and pre-dose on Day 0. • 6. […] Patients must have a negative pregnancy test at screening and on the pre-test day (Day −1). • 5. Is willing to delay start of other antidepressant or anxiety medication until after the end of the trial at Day 7 and agrees to keep any psychotherapy unchanged during the trial.
A potential patient who meets any of the following key exclusion criteria will be excluded from participation in this trial: • 1. Has, based on history, psychiatric assessment, and evaluation of the MINI, a current or prior diagnosis of bipolar disorder, a manic or hypomanic episode, a psychotic disorder, Major Depressive Disorder (MDD) or other mood disorder with psychotic features, obsessive compulsive disorder, post-traumatic stress disorder (PTSD), autism spectrum disorder, borderline personality disorder, schizophrenia, delusional disorder, paranoid personality disorder, schizoaffective disorder, clinically significant intellectual disability, or any other psychiatric comorbidity that renders the patient unsuitable for the trial according to the investigator's judgment. • 2. Has one or more first or second degree relatives with a current or previously diagnosed bipolar disorder, psychotic disorder or other mood disorder (including MDD) with psychotic features. • 3. Is in the judgement of a trial psychiatrist or registered psychologist, at significant risk for suicide based on history, psychiatric assessment, and evaluation of suicidal ideation and suicidal behaviour based on the Columbia-Suicide Severity Rating Scale (C-SSRS). • 4. Has taken anti-depressive medication within 14 days or 5 half-lives (whichever is longer) prior to dosing (exception: within the last 5 weeks in the case of fluoxetine). • 5.

COc1ccc2[nH]cc(CCN(C)C)c2c1 [5-MeO-DMT]
ECG (3 hours), safety laboratory analyses (7 days), CADSS (3 hours, 1 day, 7 days): unremarkable
Reported adverse events (cramping left abdominal pain and headache, Day 0): mild, short-lasting and resolved spontaneously
Standard criteria for MADRS remission (MADRS total score equal or less than 10): fulfilled
Standard criteria for MADRS response (at least 50% improvement from baseline): fulfilled
Tolerability of the inhalation procedure: well tolerated with no inhalation-related adverse events
MADRS Apparent sadness improvement (2 hr vs baseline): 5
MADRS Concentration Difficulties improvement (2 hr vs baseline): 0
MADRS Inability to Feel improvement (2 hr vs baseline): 3
MADRS Inner Tension improvement (2 hr vs baseline): 5
MADRS Lassitude improvement (2 hr vs baseline): 3
MADRS Pessimistic Thoughts improvement (2 hr vs baseline): 4
MADRS Reduced Sleep improvement (2 hr vs baseline): 0
MADRS Reduced appetite improvement (2 hr vs baseline): 0
MADRS Reported sadness improvement (2 hr vs baseline): 4
MADRS Suicidal Thoughts improvement (2 hr vs baseline): 0
MADRS Concentration Difficulties score (2 hr, baseline 0): 0
MADRS Reduced appetite score (2 hr, baseline 0): 0
MADRS Suicidal Thoughts score (2 hr, baseline 0): 0
MADRS Inability to Feel score (2 hr, baseline 3): 0
MADRS Lassitude score (2 hr, baseline 3): 0
MADRS Pessimistic Thoughts score (2 hr, baseline 4): 0
MADRS Reported sadness score (2 hr, baseline 4): 0
MADRS Apparent sadness score (2 hr, baseline 5): 0
MADRS Inner Tension score (2 hr, baseline 5): 0
MADRS Reduced Sleep score (2 hr, baseline 5): 5
MADRS Concentration Difficulties score (Day 1, baseline 0): 0
MADRS Reduced appetite score (Day 1, baseline 0): 0
MADRS Suicidal Thoughts score (Day 1, baseline 0): 0
BPRS Blunted affect score (Day 1, baseline 1): 1
BPRS Conceptual disorganization score (Day 1, baseline 1): 1
BPRS Disorientation score (Day 1, baseline 1): 1
BPRS Grandiosity score (Day 1, baseline 1): 1
BPRS Hallucinatory behaviour score (Day 1, baseline 1): 1
BPRS Hostility score (Day 1, baseline 1): 1
BPRS Mannerisms and Posturing score (Day 1, baseline 1): 1
BPRS Motor retardation score (Day 1, baseline 1): 1
BPRS Suspiciousness score (Day 1, baseline 1): 1
BPRS Uncooperativeness score (Day 1, baseline 1): 1
BPRS Unusual Thought Content score (Day 1, baseline 1): 1
BPRS Excitement score (Day 1, baseline 2): 1
MADRS Inability to Feel score (Day 1, baseline 3): 0
MADRS Lassitude score (Day 1, baseline 3): 0
MADRS Pessimistic Thoughts score (Day 1, baseline 4): 0
MADRS Reported sadness score (Day 1, baseline 4): 0
BPRS Emotional withdrawal score (Day 1, baseline 5): 1
MADRS Apparent sadness score (Day 1, baseline 5): 0
MADRS Inner Tension score (Day 1, baseline 5): 0
MADRS Reduced Sleep score (Day 1, baseline 5): 0
BPRS Depressive Mood score (Day 1, baseline 6): 1
BPRS Guilt feelings score (Day 1, baseline 6): 1
BPRS Somatic Concern score (Day 1, baseline 6): 1
BPRS Tension score (Day 1, baseline 6): 1
BPRS Anxiety score (Day 1, baseline 7): 1
BPRS Anxiety improvement (Day 1 vs baseline): 6
BPRS Blunted affect improvement (Day 1 vs baseline): 0
BPRS Conceptual disorganization improvement (Day 1 vs baseline): 0
BPRS Depressive Mood improvement (Day 1 vs baseline): 5
BPRS Disorientation improvement (Day 1 vs baseline): 0
BPRS Emotional withdrawal improvement (Day 1 vs baseline): 4
BPRS Excitement improvement (Day 1 vs baseline): 1
BPRS Grandiosity improvement (Day 1 vs baseline): 0
BPRS Guilt feelings improvement (Day 1 vs baseline): 5
BPRS Hallucinatory behaviour improvement (Day 1 vs baseline): 0
BPRS Hostility improvement (Day 1 vs baseline): 0
BPRS Mannerisms and Posturing improvement (Day 1 vs baseline): 0
BPRS Motor retardation improvement (Day 1 vs baseline): 0
BPRS Somatic Concern improvement (Day 1 vs baseline): 5
BPRS Suspiciousness improvement (Day 1 vs baseline): 0
BPRS Tension improvement (Day 1 vs baseline): 5
BPRS Uncooperativeness improvement (Day 1 vs baseline): 0
BPRS Unusual Thought Content improvement (Day 1 vs baseline): 0
MADRS Apparent sadness improvement (Day 1 vs baseline): 5
MADRS Concentration Difficulties improvement (Day 1 vs baseline): 0
MADRS Inability to Feel improvement (Day 1 vs baseline): 3
MADRS Inner Tension improvement (Day 1 vs baseline): 5
MADRS Lassitude improvement (Day 1 vs baseline): 3
MADRS Pessimistic Thoughts improvement (Day 1 vs baseline): 4
MADRS Reduced Sleep improvement (Day 1 vs baseline): 5
MADRS Reduced appetite improvement (Day 1 vs baseline): 0
MADRS Reported sadness improvement (Day 1 vs baseline): 4
MADRS Suicidal Thoughts improvement (Day 1 vs baseline): 0
BIMF item 2 (I feel rested) score (Day 7, Day 0 score 0): 2
BIMF item 19 (getting better at taking care of my baby) score (Day 7, Day 0 score 0): 1
BIMF item 18 (Anxiety or worry often interferes with my mothering ability) score (Day 7, Day 0 score 2): 5
BIMF item 16 (I worry about how other people judge me) score (Day 7, Day 0 score 3): 5
BIMF item 13 (taking good care of my physical needs) score (Day 7, Day 0 score 4): 5
BIMF item 4 (My baby and I understand each other) score (Day 7, Day 0 score 5): 5
BIMF item 5 (able to relax and enjoy time with my baby) score (Day 7, Day 0 score 5): 6
BIMF item 9 (getting enough encouragement from other people) score (Day 7, Day 0 score 5): 6
BIMF item 10 (I trust my own feelings (instincts)) score (Day 7, Day 0 score 5): 6
BIMF item 11 (a little time each week to do something for myself) score (Day 7, Day 0 score 5): 6
BIMF item 15 (My baby and I are getting into a routine) score (Day 7, Day 0 score 5): 6
BIMF item 17 (able to take care of my baby and my other responsibilities) score (Day 7, Day 0 score 5): 5
BIMF item 1 (I am a good mother) score (Day 7, Day 0 score 6): 6
BIMF item 3 (comfortable with the way I've chosen to feed my baby) score (Day 7, Day 0 score 6): 6
BIMF item 6 (people in my life that I can trust to care for my baby) score (Day 7, Day 0 score 6): 6
BIMF item 8 (getting enough adult interaction) score (Day 7, Day 0 score 6): 6
BIMF item 12 (taking good care of my baby's physical needs) score (Day 7, Day 0 score 6): 6
BIMF item 14 (good decisions about my baby's health and well being) score (Day 7, Day 0 score 6): 6
BIMF item 20 (satisfied with the job I am doing as a new mother) score (Day 7, Day 0 score 6): 5
MADRS Concentration Difficulties score (Day 7, baseline 0): 0
MADRS Reduced appetite score (Day 7, baseline 0): 0
MADRS Suicidal Thoughts score (Day 7, baseline 0): 0
BPRS Blunted affect score (Day 7, baseline 1): 1
BPRS Conceptual disorganization score (Day 7, baseline 1): 1
BPRS Disorientation score (Day 7, baseline 1): 1
BPRS Grandiosity score (Day 7, baseline 1): 1
BPRS Hallucinatory behaviour score (Day 7, baseline 1): 1
BPRS Hostility score (Day 7, baseline 1): 1

Reference: patent US20250241892A1, “5-METHOXY-N,N-[…][…] THE TREATMENT OF PSYCHOMOTOR RETARDATION” (GH RESEARCH IRELAND LIMITED, priority 2022, published 2025)
